The text below walks through data of PubChem BioAssay (NCI).

Experiment in all cases: growth of human tumour cells (NCI), 48 h
Assay [1] deals with HOP-92 NSCLC.
Assay [2] concerns UACC-62 melanoma.
In assay [3] the test system is ACHN renal.
For assay [4], the system named is PC-3 prostate.
For assay [5], the system named is MDA-MB-435.
For assay [6], the system named is NCI-H522 lung.
For assay [7], the system named is SN12C renal.
The subject of assay [8] is SK-MEL-28 melanoma.
The subject of assay [9] is MDA-MB-231 breast.
The test system of assay [10] is OVCAR-5 ovarian.

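Compound exposure: 48 hours, 5 concentrations, 96-well plates. GI50: concentration for 50% inhibition of growth. TGI marks complete inhibition of growth.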

In the case of `CCOC(=O)/C(C#N)=C/N(CC)/N=C/c1ccccc1`, the TGI in [1], in assay [2], in assay [3], in [4], in assay [5] and in [6] was more than 100 µM each time. The TGI in assay [7], in [8], in [9] and in [10] was more than 100 µM each time.
Regarding `C=C1CC(Cn2cc(Br)c(=O)[nH]c2=O)(c2ccc(-c3ccccc3)cc2)OC1=O` (stereo unspecified), the TGI is 0.113 µM in [1]; 2.45 µM in assay [2]; 3.24 µM in assay [3]; 3.31 µM in assay [4]; 2.36 µM in assay [5]; 2.55 µM in [6]. Further, the TGI stood at 4.67 µM in [7], 0.671 µM in assay [8], 9 µM in [9] and 15.6 µM in assay [10].
Regarding `CCCCCCOP(=O)(OCCCCCC)OC(C(=O)OC)C(F)(F)F` (stereo unspecified), the TGI in [1], in [2], in [3], in assay [4], in assay [5] and in assay [6] was more than 100 µM each time. Further, the TGI in assay [7], in assay [8], in assay [9] and in assay [10] was more than 100 µM in each case.
For the compound `CC12CC(C/C1=N/O)C(C)(C)C2` (stereo unspecified), the TGI in [1], in assay [2], in assay [3], in [4], in assay [5] and in assay [6] was more than 100 µM in each case. Moreover, the TGI in [7], in assay [8], in assay [9] and in [10] was more than 100 µM each time.
Consider `Cc1ccc2c(c1)CC1(C2=O)[C@H](c2ccccc2)C2C(=O)c3ccc(C)cc3C2[C@H]1c1ccccc1` (stereo partly specified), for which the TGI in [1], in [2], in assay [3], in [4], in assay [5] and in [6] was more than 100 µM throughout. For the same compound, the TGI in [7], in assay [8], in assay [9] and in assay [10] was more than 100 µM throughout.
Regarding `Cc1ccc(/C=C2\CN(C)CC3C2=NC(=S)NC3c2ccc(C)cc2)cc1` (stereo unspecified), the TGI in assay [1] was more than 31.1 µM; in assay [2] it was more than 100 µM; in assay [3], more than 100 µM; in assay [4] it was more than 100 µM; in assay [5], 45.1 µM; in [6] it was more than 100 µM. Besides, the TGI in assay [7], in assay [8], in assay [9] and in assay [10] was more than 100 µM throughout.
In the case of `COC(=O)C(NC(=O)CSc1nnc(COc2ccc(Cl)cc2)n1-c1ccccc1)C(C)C` (stereo unspecified), the TGI is 77.2 µM in [1]; 36.1 µM in assay [2]; more than 100 µM in assay [3]; 50.9 µM in assay [4]; 43 µM in assay [5]; 24.7 µM in [6]. Besides, the TGI in [7] came to 37.1 µM; in assay [8], 51.6 µM; in [9], 35.1 µM; in assay [10], 75.9 µM.
On to `COC(=O)C(C(=O)C(=O)NC1Nc2ccc(C)cc2S1)c1nc2ccc(Cl)cc2[nH]c1=O` (stereo unspecified), for which the TGI in assay [1], in assay [2], in [3], in assay [4], in assay [5] and in assay [6] was more than 100 µM throughout. The TGI in assay [7], in assay [8], in [9] and in assay [10] was more than 100 µM throughout.
`C=CCOC(=O)CCCCCCCCCCCCCCCOC(=O)C1=C(CCC[C@@H](C)O[Si](C)(C)C(C)(C)C)NC(=O)N2[C@H](CC3(CC/C=C\[C@H](CC)O[Si](C(C)C)(C(C)C)C(C)C)OCCO3)CC[C@H]12`: the TGI in assay [1] is 90.2 µM; in [2], more than 100 µM; in assay [3], more than 100 µM; in assay [4], more than 100 µM; in [5], more than 100 µM; in assay [6] it was more than 100 µM. In addition, the TGI in assay [7], in assay [8], in [9] and in [10] was more than 100 µM in each case.
On to `CCCNC(=O)CCC(C)[C@H]1CCC2C3C(C[C@H](OC(C)=O)[C@@]21C)[C@@]1(C)CCC2(C[C@H]1C[C@H]3OC(C)=O)OOC1(CCCCC1)OO2` (stereo partly specified), for which, in [1], the GI50 is 1.42 µM. For the same compound, the TGI in [1] is 3.82 µM; in assay [2] it was more than 100 µM; in assay [3] it was 2.62 µM; in [4], 7.08 µM; in [5], 9.92 µM; in [6], 1.44 µM. The TGI in [7] was 16 µM; in assay [8] it was more than 100 µM; in [9], 5.31 µM; in [10], 25.8 µM.
